Like-named read-outs stand apart in the source and are kept apart here.
Columns and labels:
[1] = biological target: T1, EGFR (C797S L858R) (Homo sapiens, UniProt P00533, C797S/L858R); assay: Inhibition of EGFR (C797S L858R) biochemical enzymatic activity (HTRF); details: EGFR L858-C797S, 1 mM ATP, 1 h, room temperature, read-out: IC50 (nM) @L858-C797S
T1 construct: purchased signalchem
Procedure, shortened: (§1)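 Enzyme preincubated with compound, then ATP (1 mM) and TK substrate-biotin (1 μM) added; 1 h RT; stopped with EDTA-containing detection mix; HTRF read (ex 320, em 615/665 nm); IC50 by 4-parameter logistic fit.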

[2] = biological target: T2, EGFR (d746-750 C797S) (Homo sapiens, UniProt P00533, C797S/DEL746-750); assay: Inhibition of EGFR (d746-750 C797S) biochemical enzymatic activity (HTRF); details: EGFR Del19-C797S, 1 mM ATP, 1 h, room temperature, read-out: IC50 (nM) @Del19-C797S
T2 construct: purchased signalchem
Procedure, shortened: as §1

[3] = biological target: T3, EGFR[T790M/C797S/d746-750] (Homo sapiens, UniProt P00533, C797S/DEL746-750/T790M); assay: Inhibition of EGFR[T790M/C797S/d746-750] biochemical enzymatic activity (HTRF); details: EGFR T790M-C797S-Del19, 1 mM ATP, 1 h, room temperature, read-out: IC50 (nM) @T790M - C797S - Del19
T3 construct: purchased Carna Bio
Procedure, shortened: as §1

[4] = biological target: T4, EGFR[T790M/C797S/L858R] (Homo sapiens, UniProt P00533, C797S/L858R/T790M); assay: Inhibition of EGFR[T790M/C797S/L858R] biochemical enzymatic activity (HTRF); details: EGFR T790M-C797S-L858R, 1 mM ATP, 1 h, room temperature, read-out: IC50 (nM) @T790M- C797S - L858R
T4 construct: purchased Carna Bio
Procedure, shortened: as §1

[5] = biological target: T5, EGFR Exon19Del (Homo sapiens, UniProt P00533, DEL746-750); assay: Inhibition of EGFR Exon19Del biochemical enzymatic activity (HTRF); details: EGFR Del19, 1 mM ATP, 1 h, room temperature, read-out: IC50 @Del19
T5 construct: purchased Carna Bio
Procedure, shortened: as §1

[6] = test system: PC-9; assay: Cell proliferation assay, PC-9 cells (CellTiter-Glo, 72 hours); type: cell-based; details: Homo sapiens, PC-9, 72 h, PC9 cells, read-out: GI50 PC9
Procedure, shortened: (§2)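 GI50 is the concentration giving 50% proliferation inhibition. Growth for this was normalised to a baseline viability reading taken when compound was added, and to DMSO wells. PC-9 (500 cells/well) and mutant-EGFR Ba/F3 (5000 cells/well) are treated after overnight seeding in RPMI1640-based medium.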

[7] = biological target: T6, EGFR wild type (Homo sapiens, UniProt P00533); assay: Inhibition of EGFR wild type biochemical enzymatic activity (HTRF); details: EGFR WT, 1 mM ATP, 1 h, room temperature, read-out: IC50 (nM) @WT
T6 construct: purchased Carna Bio
Procedure, shortened: as §1

[8] = test system: A-431; assay: Cell proliferation assay, A-431 cells (GI50, Table 6); type: cell-based; details: Homo sapiens, A-431, A-431 cells
[9] = biological target: T7, EGFR L858R (Homo sapiens, UniProt P00533, L858R); assay: Inhibition of EGFR L858R biochemical enzymatic activity (HTRF); details: 1 mM ATP, 1 h, room temperature, read-out: IC50 (nM) @L858R
T7 construct: purchased Carna Bio
Procedure, shortened: as §1

[10] = test system: Ba/F3 cells expressing EGFR mutations; assay: Cell proliferation assay, Ba/F3 cells expressing EGFR mutations (CellTiter-Glo, 72 hours); type: cell-based; details: Mus musculus, BaF3, 72 h
Procedure, shortened: as §2

[11] = biological target: T8, EGFR Exon19Del/T790M (Homo sapiens, UniProt P00533, DEL746-750/T790M); assay: Inhibition of EGFR Exon19Del/T790M biochemical enzymatic activity (HTRF); details: EGFR Del19-T790M, 1 mM ATP, 1 h, room temperature, read-out: IC50 (nM) @Del19-T790M
T8 construct: purchased Carna Bio
Procedure, shortened: as §1

[12] = biological target: T9, EGFR L858R/T790M (Homo sapiens, UniProt P00533, L858R/T790M); assay: Inhibition of EGFR L858R/T790M biochemical enzymatic activity (HTRF); details: EGFR L858R-T790M, 1 mM ATP, 1 h, room temperature, read-out: IC50 (nM) @L858R-T790M
T9 construct: purchased Carna Bio
Procedure, shortened: as §1

[13] = BaF3 cells, EGFR DEL19 - C797S, read-out: GI50 DEL19 - C797S/BaF3
[14] = BaF3 cells, EGFR DEL19 - T790-C797S, read-out: GI50 DEL19 - T790-C797S/BaF3
[15] = BaF3 cells, EGFR L858R - C797S, read-out: GI50 L858R - C797S/BaF3
[16] = BaF3 cells, EGFR L858R - T790-C797S, read-out: GI50 L858R - T790-C797S/BaF3
[17] = BaF3 cells, EGFR L858R - T790M, read-out: GI50 L858R - T790M/BaF3
[18] = BaF3 cells, EGFR L858R, read-out: GI50 L858R/BaF3
[19] = EGFR DEL19 - T790M, read-out: GI50 DEL19 - T790M

T3 sequence (P00533 with tags, fused parts or gaps DEL746-750/T790M/C797S limits assumed): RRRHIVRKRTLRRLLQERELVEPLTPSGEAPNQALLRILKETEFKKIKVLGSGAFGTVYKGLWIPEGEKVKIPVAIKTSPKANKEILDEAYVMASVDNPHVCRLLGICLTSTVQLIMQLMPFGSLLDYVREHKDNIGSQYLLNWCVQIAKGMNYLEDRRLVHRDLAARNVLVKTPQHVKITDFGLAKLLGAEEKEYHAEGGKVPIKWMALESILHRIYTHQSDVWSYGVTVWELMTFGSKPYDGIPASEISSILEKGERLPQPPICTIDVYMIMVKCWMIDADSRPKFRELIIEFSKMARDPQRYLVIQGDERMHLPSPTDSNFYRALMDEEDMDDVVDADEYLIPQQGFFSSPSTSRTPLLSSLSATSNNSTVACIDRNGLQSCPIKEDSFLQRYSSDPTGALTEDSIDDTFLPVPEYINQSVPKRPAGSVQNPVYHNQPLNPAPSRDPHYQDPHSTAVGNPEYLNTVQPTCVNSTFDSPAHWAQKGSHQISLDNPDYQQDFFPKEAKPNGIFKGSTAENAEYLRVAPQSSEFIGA
T8 sequence (P00533 with tags, fused parts or gaps DEL746-750/T790M limits assumed): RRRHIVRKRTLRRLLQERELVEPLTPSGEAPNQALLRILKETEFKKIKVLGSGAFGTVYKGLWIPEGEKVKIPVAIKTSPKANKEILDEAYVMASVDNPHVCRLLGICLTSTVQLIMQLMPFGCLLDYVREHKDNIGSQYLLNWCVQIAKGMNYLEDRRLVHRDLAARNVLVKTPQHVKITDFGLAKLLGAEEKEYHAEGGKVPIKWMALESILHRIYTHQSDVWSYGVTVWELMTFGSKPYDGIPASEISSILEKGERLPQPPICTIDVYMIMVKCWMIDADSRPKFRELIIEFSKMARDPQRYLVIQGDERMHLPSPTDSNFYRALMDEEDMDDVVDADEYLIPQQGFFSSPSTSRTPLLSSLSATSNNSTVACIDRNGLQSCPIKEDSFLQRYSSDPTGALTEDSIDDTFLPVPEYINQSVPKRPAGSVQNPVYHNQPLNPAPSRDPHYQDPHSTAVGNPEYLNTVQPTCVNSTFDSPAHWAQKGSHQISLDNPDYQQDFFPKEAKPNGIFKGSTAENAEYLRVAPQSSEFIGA
T9 sequence (P00533 25-1210 T790M/L858R): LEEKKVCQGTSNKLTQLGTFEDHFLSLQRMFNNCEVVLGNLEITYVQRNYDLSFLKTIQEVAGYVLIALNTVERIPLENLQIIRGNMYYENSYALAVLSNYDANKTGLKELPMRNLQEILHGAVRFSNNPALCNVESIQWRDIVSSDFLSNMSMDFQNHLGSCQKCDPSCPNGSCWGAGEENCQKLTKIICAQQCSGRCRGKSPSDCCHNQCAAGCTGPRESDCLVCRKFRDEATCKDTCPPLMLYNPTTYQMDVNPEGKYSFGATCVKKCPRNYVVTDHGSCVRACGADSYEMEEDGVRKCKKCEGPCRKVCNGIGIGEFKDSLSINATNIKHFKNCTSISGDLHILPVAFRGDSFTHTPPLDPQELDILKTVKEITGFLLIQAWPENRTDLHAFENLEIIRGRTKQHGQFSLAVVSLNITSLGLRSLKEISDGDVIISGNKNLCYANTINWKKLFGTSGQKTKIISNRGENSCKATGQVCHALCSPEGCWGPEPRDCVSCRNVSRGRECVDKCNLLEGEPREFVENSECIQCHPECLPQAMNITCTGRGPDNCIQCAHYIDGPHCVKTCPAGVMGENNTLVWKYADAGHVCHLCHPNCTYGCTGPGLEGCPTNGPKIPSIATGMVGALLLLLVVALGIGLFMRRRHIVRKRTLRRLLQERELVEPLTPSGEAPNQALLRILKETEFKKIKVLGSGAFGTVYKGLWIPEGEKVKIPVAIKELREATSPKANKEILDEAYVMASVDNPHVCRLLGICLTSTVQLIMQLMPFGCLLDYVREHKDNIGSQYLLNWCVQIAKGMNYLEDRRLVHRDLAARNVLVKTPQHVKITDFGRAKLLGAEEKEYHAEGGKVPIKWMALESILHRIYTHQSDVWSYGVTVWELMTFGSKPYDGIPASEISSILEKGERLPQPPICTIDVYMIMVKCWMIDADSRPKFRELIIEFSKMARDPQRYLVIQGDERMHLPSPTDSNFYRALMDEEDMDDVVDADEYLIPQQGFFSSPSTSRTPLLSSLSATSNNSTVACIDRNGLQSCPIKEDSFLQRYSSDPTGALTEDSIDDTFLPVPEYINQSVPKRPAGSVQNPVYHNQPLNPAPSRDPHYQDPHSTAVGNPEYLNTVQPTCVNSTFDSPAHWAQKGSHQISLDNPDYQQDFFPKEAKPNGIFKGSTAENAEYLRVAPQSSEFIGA
T7 sequence (P00533 25-1210 L858R): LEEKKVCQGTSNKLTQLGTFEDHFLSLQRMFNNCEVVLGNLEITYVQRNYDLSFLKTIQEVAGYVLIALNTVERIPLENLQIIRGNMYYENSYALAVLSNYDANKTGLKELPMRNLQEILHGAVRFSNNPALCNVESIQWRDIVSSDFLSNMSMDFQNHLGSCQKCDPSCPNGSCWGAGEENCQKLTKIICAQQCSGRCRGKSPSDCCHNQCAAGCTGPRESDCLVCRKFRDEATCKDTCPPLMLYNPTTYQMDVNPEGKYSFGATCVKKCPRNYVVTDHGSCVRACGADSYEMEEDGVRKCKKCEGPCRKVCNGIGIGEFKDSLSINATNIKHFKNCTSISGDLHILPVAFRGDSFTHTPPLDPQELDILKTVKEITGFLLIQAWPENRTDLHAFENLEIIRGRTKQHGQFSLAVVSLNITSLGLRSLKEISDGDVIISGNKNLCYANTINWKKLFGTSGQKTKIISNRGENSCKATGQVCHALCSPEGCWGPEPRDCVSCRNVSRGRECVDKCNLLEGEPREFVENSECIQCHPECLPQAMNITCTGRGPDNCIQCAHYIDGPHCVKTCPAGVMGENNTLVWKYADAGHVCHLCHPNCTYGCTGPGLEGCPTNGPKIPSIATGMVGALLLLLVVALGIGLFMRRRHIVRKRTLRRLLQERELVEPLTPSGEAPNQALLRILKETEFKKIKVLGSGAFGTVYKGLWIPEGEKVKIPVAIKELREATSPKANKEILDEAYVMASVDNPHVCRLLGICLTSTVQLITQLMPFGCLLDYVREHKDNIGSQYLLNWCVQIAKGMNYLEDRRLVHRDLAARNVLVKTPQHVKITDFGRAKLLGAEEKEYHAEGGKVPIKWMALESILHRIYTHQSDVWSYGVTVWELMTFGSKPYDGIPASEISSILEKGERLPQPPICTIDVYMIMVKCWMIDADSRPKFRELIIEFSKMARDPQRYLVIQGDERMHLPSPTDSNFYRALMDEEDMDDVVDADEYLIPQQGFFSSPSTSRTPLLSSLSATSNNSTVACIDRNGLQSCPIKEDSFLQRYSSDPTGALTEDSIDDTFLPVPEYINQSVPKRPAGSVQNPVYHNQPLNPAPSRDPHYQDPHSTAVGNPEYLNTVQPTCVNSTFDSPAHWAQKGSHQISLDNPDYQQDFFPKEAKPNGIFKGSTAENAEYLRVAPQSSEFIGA
T6 sequence (P00533 25-1210): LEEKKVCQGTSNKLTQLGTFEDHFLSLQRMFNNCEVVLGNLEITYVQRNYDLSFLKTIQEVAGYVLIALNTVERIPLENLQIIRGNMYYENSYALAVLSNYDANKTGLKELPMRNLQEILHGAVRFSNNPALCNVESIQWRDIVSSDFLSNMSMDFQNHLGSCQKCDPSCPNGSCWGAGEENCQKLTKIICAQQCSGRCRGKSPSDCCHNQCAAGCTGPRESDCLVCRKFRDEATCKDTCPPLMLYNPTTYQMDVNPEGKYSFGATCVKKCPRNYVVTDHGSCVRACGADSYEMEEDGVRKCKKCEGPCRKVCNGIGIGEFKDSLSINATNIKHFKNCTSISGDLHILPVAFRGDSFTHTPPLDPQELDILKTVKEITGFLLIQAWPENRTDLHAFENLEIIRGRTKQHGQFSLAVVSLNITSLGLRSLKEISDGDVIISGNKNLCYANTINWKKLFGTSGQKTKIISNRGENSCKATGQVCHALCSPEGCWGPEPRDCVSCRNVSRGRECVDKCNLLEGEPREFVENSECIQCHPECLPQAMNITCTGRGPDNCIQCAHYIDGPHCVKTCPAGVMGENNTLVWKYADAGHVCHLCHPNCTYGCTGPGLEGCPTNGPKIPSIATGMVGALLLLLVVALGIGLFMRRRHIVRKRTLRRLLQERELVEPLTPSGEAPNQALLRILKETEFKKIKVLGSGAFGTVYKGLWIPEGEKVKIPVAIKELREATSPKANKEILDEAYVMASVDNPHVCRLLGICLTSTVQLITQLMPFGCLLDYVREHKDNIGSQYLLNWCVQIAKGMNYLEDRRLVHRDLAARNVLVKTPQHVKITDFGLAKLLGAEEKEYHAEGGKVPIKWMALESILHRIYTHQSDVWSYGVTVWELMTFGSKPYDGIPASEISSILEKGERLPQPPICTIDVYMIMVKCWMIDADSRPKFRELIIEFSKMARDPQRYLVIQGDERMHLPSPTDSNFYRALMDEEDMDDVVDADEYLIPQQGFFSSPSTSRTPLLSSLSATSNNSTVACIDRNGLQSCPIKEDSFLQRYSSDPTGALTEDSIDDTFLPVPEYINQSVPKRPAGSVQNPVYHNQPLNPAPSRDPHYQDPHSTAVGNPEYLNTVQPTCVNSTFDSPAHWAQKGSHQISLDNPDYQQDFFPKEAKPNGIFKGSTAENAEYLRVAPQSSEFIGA

Structure (SMILES) | IC50 [1] [nM] | IC50 [2] [nM] | IC50 [3] [nM] | IC50 [4] [nM] | IC50 [5] [nM] | GI50 [6] [nM] | IC50 [7] [nM] | GI50 [8] [nM] | IC50 [9] [nM] | GI50 [10, 13] [nM] | GI50 [10, 14] [nM] | GI50 [10, 15] [nM] | GI50 [10, 16] [nM] | GI50 [10, 17] [nM] | GI50 [10, 18] [nM] | GI50 [10, 19] [nM] | IC50 [11] [nM] | IC50 [12] [nM]
Cn1ncc2c1OCCN1CC3CCC(C3)(C1)n1c(nc3cc(F)ccc31)NC(=O)c1cc-2c(=O)n(C)c1 (centres unmarked) [Example A117B, 6-fluoro-15,21-dimethyl-23-oxa-2,9,11,15,20,21,26-heptaazaheptacyclo[24.4.1.1^{1,28}.1^{13,17}.0^{2,10}.0^{3,8}.0^{18,22}]tritriaconta-3,5,7,9,13,17(33),18(22),19-octaene-12,16-dione] | 23 | 8.1 | 2.5 | 280 | 23 | 57 | > 5000 | 1510 | 463 | 4.3 | 20 | 38 | 32 | 80 | 16 | 12 | 3.3 | 1910
CN(C)C1CCN(c2ccc3nc4n(c3c2)C23CCC(CC2)CN(CCOc2c(cnn2C)-c2cc(cn(C)c2=O)C(=O)N4)C3)CC1 [Example A119, 5-[4-(dimethylamino)piperidin-1-yl]-15,21-dimethyl-23-oxa-2,9,11,15,20,21,26-heptaazaheptacyclo[26.2.2.1^{1,26}.1^{13,17}.0^{2,10}.0^{3,8}.0^{18,22}]tetratriaconta-3,5,7,9,13,17(34),18(22),19-octaene-12,16-dione] | 19 | 4.7 | 3 | 9 | 7.6 | 11 | 1060 | 1070 | 38 | 1.5 | 11 | 11 | 6.6 | 15 | 2.1 | 7.3 | 6.6 | 32
CN(C)[C@H]1CCN(c2ccc3nc4n(c3c2)C23CCC(CC2)CN(CCOc2c(cnn2C)-c2cc(cn(C)c2=O)C(=O)N4)C3)C1 [Example A120] | 108 | 14 | 15 | 113 | 22 | 54 | > 5000 | 7850 | 177 | 13 | 71 | 50 | 28 | 113 | 8.1 | 40 | 16 | 374
CN(C)[C@@H]1CCN(c2ccc3nc4n(c3c2)C23CCC(CC2)CN(CCOc2c(cnn2C)-c2cc(cn(C)c2=O)C(=O)N4)C3)C1 [Example A121] | 101 | 19 | 10 | 154 | 25 | 27 | > 5000 | 4970 | 167 | 7.8 | 44 | 35 | 15 | 61 | 12 | 25 | 21 | 477
CN1CCC12CCN(c1ccc3nc4n(c3c1)C13CCC(CC1)CN(CCOc1c(cnn1C)-c1cc(cn(C)c1=O)C(=O)N4)C3)CC2 [Example A122] | 25 | 3.5 | 5.2 | 8.1 | 6.8 | 22 | 1420 | 2100 | 48 | 3.2 | 22 | 19 | 13 | 82 | 4.1 | – | 7.6 | 39
CN1CCC2(CC1)CCN(c1ccc3nc4n(c3c1)C13CCC(CC1)CN(CCOc1c(cnn1C)-c1cc(cn(C)c1=O)C(=O)N4)C3)C2 [Example A123] | 57 | 9.4 | 11 | 23 | 13 | 25 | > 5000 | 6110 | 65 | 12 | 45 | 32 | 20 | 59 | 5.8 | 27 | 13 | 223
CN(C)CCN(C)c1ccc2nc3n(c2c1)C12CCC(CC1)CN(CCOc1c(cnn1C)-c1cc(cn(C)c1=O)C(=O)N3)C2 [Example A124] | 76 | 11 | 7.7 | 72 | 15 | 27 | 2790 | 3800 | 139 | 7.2 | 38 | 32 | 11 | 47 | 5.2 | 26 | 9.8 | 334

— patent publication US20260365670A1, “EGFR INHIBITORS AND USES THEREOF” (DIZAL (JIANGSU) PHARMACEUTICAL CO., LTD., priority 2022, published 2026)
